Source: PMC5218480 (PLoS ONE, 2017)

System: MV-4-11 cells
Experiment: Gene expression microarray analysis (Affymetrix PrimeView) and GSEA
Type: cell-based, human
Parameters: RFU PODN (11730768_x_at) / Fold change /veh PODN (11730768_x_at) / RFU LINC00158 (11744669_a_at) / Fold change /veh LINC00158 (11744669_a_at) / RFU DUSP10 (11751237_a_at) / Fold change /veh DUSP10 (11751237_a_at) / RFU ID3 (11757404_x_at) / Fold change /veh ID3 (11757404_x_at) / RFU PLEKHG5 (11737974_s_at) / Fold change /veh PLEKHG5 (11737974_s_at) / RFU LRRC4B (11730491_at) / Fold change /veh LRRC4B (11730491_at) / RFU GIMAP4 (11747438_a_at) / Fold change /veh GIMAP4 (11747438_a_at) / RFU KRT8 (11758183_x_at) / Fold change /veh KRT8 (11758183_x_at) / RFU CNN1 (11734310_a_at) / Fold change /veh CNN1 (11734310_a_at) / RFU VPS37D (11726825_at) / Fold change /veh VPS37D (11726825_at) / RFU C10orf10 (11716522_x_at) / Fold change /veh C10orf10 (11716522_x_at) / RFU KIR2DL2 /// KIR2DL4 /// KIR2DL5A /// KIR2DL5B /// KIR2DS1 /// KIR2DS2 /// KIR2DS3 /// KIR2DS4 /// KIR3DL3 /// KIR3DL3 /// KIR3DS1 (11738374_at) / Fold change /veh KIR2DL2 /// KIR2DL4 /// KIR2DL5A /// KIR2DL5B /// KIR2DS1 /// KIR2DS2 /// KIR2DS3 /// KIR2DS4 /// KIR3DL3 /// KIR3DL3 /// KIR3DS1 (11738374_at) / RFU C1QL1 (11718748_at) / Fold change /veh C1QL1 (11718748_at) / RFU TMPRSS4 (11747572_a_at) / Fold change /veh TMPRSS4 (11747572_a_at) / RFU HAMP (11756126_x_at) / Fold change /veh HAMP (11756126_x_at) / RFU RNFT2 (11725882_a_at) / Fold change /veh RNFT2 (11725882_a_at) / RFU NR4A2 (11747474_a_at) / Fold change /veh NR4A2 (11747474_a_at) / RFU ABCC12 (11746883_a_at) / Fold change /veh ABCC12 (11746883_a_at) / RFU TMEM136 (11760407_x_at) / Fold change /veh TMEM136 (11760407_x_at) / RFU CLDN22 /// WWC2 (11732394_at) / Fold change /veh CLDN22 /// WWC2 (11732394_at) / RFU HLA-DPB1 (11760878_x_at) / Fold change /veh HLA-DPB1 (11760878_x_at) / RFU SPINT1 (11716480_a_at) / Fold change /veh SPINT1 (11716480_a_at) / RFU GAP43 (11754022_s_at) / Fold change /veh GAP43 (11754022_s_at) / RFU A4GNT (11735810_at) / Fold change /veh A4GNT (11735810_at) / RFU PRB3 (11715151_x_at) / Fold change /veh PRB3 (11715151_x_at) / RFU TUBB4B (11761932_at) / Fold change /veh TUBB4B (11761932_at) / RFU CAPN14 (11732068_a_at) / Fold change /veh CAPN14 (11732068_a_at) / RFU TMCC2 (11721928_a_at) / Fold change /veh TMCC2 (11721928_a_at) / RFU IRGQ (11745062_a_at) / Fold change /veh IRGQ (11745062_a_at) / RFU FAM174B (11720279_a_at) / Fold change /veh FAM174B (11720279_a_at) / RFU TMPRSS4 (11748680_a_at) / Fold change /veh TMPRSS4 (11748680_a_at) / RFU FAM212B (11763350_a_at) / Fold change /veh FAM212B (11763350_a_at) / RFU PLEKHG5 (11743358_a_at) / Fold change /veh PLEKHG5 (11743358_a_at) / RFU ZSCAN30 (11745921_a_at) / Fold change /veh ZSCAN30 (11745921_a_at) / RFU CMKLR1 (11741424_a_at) / Fold change /veh CMKLR1 (11741424_a_at) / RFU LOC101060620 /// MAPK8IP1 (11723275_at) / Fold change /veh LOC101060620 /// MAPK8IP1 (11723275_at) / RFU SPTSSB (11747773_x_at) / Fold change /veh SPTSSB (11747773_x_at) / RFU PRSS12 (11739890_at) / Fold change /veh PRSS12 (11739890_at) / RFU BIN1 (11741810_x_at) / Fold change /veh BIN1 (11741810_x_at) / RFU WNT11 (11732464_a_at) / Fold change /veh WNT11 (11732464_a_at) / RFU C10orf10 (11716521_a_at) / Fold change /veh C10orf10 (11716521_a_at) / RFU C5orf56 (11738089_at) / Fold change /veh C5orf56 (11738089_at) / RFU CYB561 (11721691_x_at) / Fold change /veh CYB561 (11721691_x_at) / RFU ANKRD19P (11752326_a_at) / Fold change /veh ANKRD19P (11752326_a_at) / RFU OR2T12 /// OR2T33 /// OR2T8 (11738714_s_at) / Fold change /veh OR2T12 /// OR2T33 /// OR2T8 (11738714_s_at) / RFU VCAN (11748164_a_at) / Fold change /veh VCAN (11748164_a_at) / RFU JSRP1 (11732532_at) / Fold change /veh JSRP1 (11732532_at) / RFU KRTAP10-11 (11738290_x_at) / Fold change /veh KRTAP10-11 (11738290_x_at) / RFU MYO3A (11730013_a_at) / Fold change /veh MYO3A (11730013_a_at) / RFU EBF3 (11725865_a_at) / Fold change /veh EBF3 (11725865_a_at) / RFU CAMK2N1 (11719241_x_at) / Fold change /veh CAMK2N1 (11719241_x_at) / RFU C5orf56 (11738088_a_at) / Fold change /veh C5orf56 (11738088_a_at) / RFU OLFML3 (11715873_a_at) / Fold change /veh OLFML3 (11715873_a_at) / RFU LOC100653217 /// NTM (11731650_a_at) / Fold change /veh LOC100653217 /// NTM (11731650_a_at) / RFU MAPK11 (11762145_a_at) / Fold change /veh MAPK11 (11762145_a_at) / RFU FIZ1 (11724087_x_at) / Fold change /veh FIZ1 (11724087_x_at) / RFU OASL (11726364_x_at) / Fold change /veh OASL (11726364_x_at) / RFU SOX15 (11748057_x_at) / Fold change /veh SOX15 (11748057_x_at) / RFU CD79A (11719716_a_at) / Fold change /veh CD79A (11719716_a_at) / RFU HIST1H1D (11736915_at) / Fold change /veh HIST1H1D (11736915_at) / RFU CASKIN2 (11723855_a_at) / Fold change /veh CASKIN2 (11723855_a_at) / RFU LOC730098 (11760151_x_at) / Fold change /veh LOC730098 (11760151_x_at) / RFU OR4N2 (11742367_at) / Fold change /veh OR4N2 (11742367_at) / RFU PRRT2 (11749266_a_at) / Fold change /veh PRRT2 (11749266_a_at) / RFU SNX32 (11753110_a_at) / Fold change /veh SNX32 (11753110_a_at) / RFU CDHR5 (11726645_a_at) / Fold change /veh CDHR5 (11726645_a_at) / RFU RCAN1 (11760418_a_at) / Fold change /veh RCAN1 (11760418_a_at) / RFU FAM167A (11723789_a_at) / Fold change /veh FAM167A (11723789_a_at) / RFU FAM26E (11764081_at) / Fold change /veh FAM26E (11764081_at) / RFU ISYNA1 (11749810_s_at) / Fold change /veh ISYNA1 (11749810_s_at) / RFU ACY1 (11761880_at) / Fold change /veh ACY1 (11761880_at) / RFU 11764098_at / Fold change /veh 11764098_at / RFU SAMD14 (11745864_x_at) / Fold change /veh SAMD14 (11745864_x_at) / RFU NPB (11741838_a_at) / Fold change /veh NPB (11741838_a_at) / RFU TMPRSS6 (11731388_a_at) / Fold change /veh TMPRSS6 (11731388_a_at) / RFU KRTAP10-2 (11738614_at) / Fold change /veh KRTAP10-2 (11738614_at) / RFU ARHGAP8 /// PRR5-ARHGAP8 (11727945_x_at) / Fold change /veh ARHGAP8 /// PRR5-ARHGAP8 (11727945_x_at) / RFU KRTAP5-7 /// NADSYN1 (11734609_at) / Fold change /veh KRTAP5-7 /// NADSYN1 (11734609_at) / RFU RASL12 (11751679_a_at) / Fold change /veh RASL12 (11751679_a_at) / RFU CDKN2B (11736163_a_at) / Fold change /veh CDKN2B (11736163_a_at) / RFU PRF1 (11729649_at) / Fold change /veh PRF1 (11729649_at) / RFU, ZNF638 /// ZNF638-IT1 / Fold change vs veh, ZNF638 /// ZNF638-IT1 / RFU, PANK3 / Fold change vs veh, PANK3 / RFU, SH3YL1 / Fold change vs veh, SH3YL1 / RFU, ZEB2 / Fold change vs veh, ZEB2 / RFU, NRIP1 / Fold change vs veh, NRIP1 / RFU, PTTG1IP / Fold change vs veh, PTTG1IP / RFU, CAPN2 / Fold change vs veh, CAPN2 / RFU, MED14 / Fold change vs veh, MED14 / RFU, SNORA58 / Fold change vs veh, SNORA58 / RFU, C1orf63 / Fold change vs veh, C1orf63 / RFU, LRRFIP1 / Fold change vs veh, LRRFIP1 / RFU, NDUFAF7 / Fold change vs veh, NDUFAF7 / RFU, SLC12A2 / Fold change vs veh, SLC12A2 / RFU, IBTK / Fold change vs veh, IBTK / RFU, ESF1 / Fold change vs veh, ESF1 / Fold change vs veh, TMEM50B / RFU, TAOK1 / Fold change vs veh, TAOK1 / RFU, ACBD3 / Fold change vs veh, ACBD3 / RFU, TMA16 / Fold change vs veh, TMA16 / RFU, RWDD3 / Fold change vs veh, RWDD3 / RFU, BCAT1 / Fold change vs veh, BCAT1 / RFU, EDEM3 / Fold change vs veh, EDEM3 / RFU, TMEM33 / Fold change vs veh, TMEM33 / RFU, WDR75 / Fold change vs veh, WDR75 / RFU, AHCTF1 / Fold change vs veh, AHCTF1 / RFU, TFRC / Fold change vs veh, TFRC / RFU, ZDHHC17 / Fold change vs veh, ZDHHC17 / RFU, NOM1 / Fold change vs veh, NOM1 / RFU, ARL8B / Fold change vs veh, ARL8B / RFU, ZBTB11 / Fold change vs veh, ZBTB11 / RFU, TAMM41 / Fold change vs veh, TAMM41 / RFU, KIAA1704 /// LOC100996395 / Fold change vs veh, KIAA1704 /// LOC100996395 / RFU, ING1 / Fold change vs veh, ING1 / RFU, TRMT61B / Fold change vs veh, TRMT61B / RFU, FUBP3 / Fold change vs veh, FUBP3 / RFU, TP53 / Fold change vs veh, TP53 / RFU, TNKS2 / Fold change vs veh, TNKS2 / RFU, ZFP14 / Fold change vs veh, ZFP14 / RFU, ACTR2 / Fold change vs veh, ACTR2 / RFU, PPP3R1 / Fold change vs veh, PPP3R1 / RFU, PIK3R1 / Fold change vs veh, PIK3R1 / RFU, HNRNPA1 / Fold change vs veh, HNRNPA1 / RFU, RNF170 / Fold change vs veh, RNF170 / RFU, ZNF28 / Fold change vs veh, ZNF28 / RFU, RNGTT / Fold change vs veh, RNGTT / RFU, OGT / Fold change vs veh, OGT / RFU, BRD1 / Fold change vs veh, BRD1 / RFU, MARS / Fold change vs veh, MARS / RFU, ZNF655 / Fold change vs veh, ZNF655 / RFU, FAHD1 / Fold change vs veh, FAHD1 / RFU, BDP1 / Fold change vs veh, BDP1 / RFU, LRRCC1 / Fold change vs veh, LRRCC1 / RFU, ARID1A / Fold change vs veh, ARID1A / RFU, ZNF146 / Fold change vs veh, ZNF146 / RFU, ZNF330 / Fold change vs veh, ZNF330 / RFU, GPN3 / Fold change vs veh, GPN3 / RFU, C9orf123 / Fold change vs veh, C9orf123 / RFU, N4BP2L2 / Fold change vs veh, N4BP2L2 / RFU, ARFIP1 / Fold change vs veh, ARFIP1 / RFU, FAM179B / Fold change vs veh, FAM179B / RFU, BCL10 / Fold change vs veh, BCL10 / RFU, UHRF1BP1L / Fold change vs veh, UHRF1BP1L / RFU, BET1 / Fold change vs veh, BET1 / RFU, CNOT2 / Fold change vs veh, CNOT2 / RFU, ZNF268 / Fold change vs veh, ZNF268 / Fold change vs veh, ZNF507 / RFU, DGCR2 / Fold change vs veh, DGCR2 / RFU, WDSUB1 / Fold change vs veh, WDSUB1 / Fold change vs veh, HSP90B1 /// MIR3652 / RFU, ADSS / Fold change vs veh, ADSS / RFU, GK / Fold change vs veh, GK / RFU, ZNF148 / Fold change vs veh, ZNF148 / RFU, TAF9 / Fold change vs veh, TAF9 / RFU, SLC1A5 / Fold change vs veh, SLC1A5 / RFU, SLMO2 / Fold change vs veh, SLMO2 / RFU, ABCC4 / Fold change vs veh, ABCC4 / RFU, LOC101060439 /// RAP1B / Fold change vs veh, LOC101060439 /// RAP1B / RFU, RFX7 / Fold change vs veh, RFX7 / RFU, GTPBP10 / Fold change vs veh, GTPBP10 / RFU, CNEP1R1 / Fold change vs veh, CNEP1R1 / RFU, BIVM-ERCC5 /// ERCC5 / Fold change vs veh, BIVM-ERCC5 /// ERCC5 / RFU, ILF3 / Fold change vs veh, ILF3 / RFU 11762660_at / Fold change /veh 11762660_at / RFU VCAN (11757783_s_at) / Fold change /veh VCAN (11757783_s_at) / RFU DDX43 (11728927_at) / Fold change /veh DDX43 (11728927_at) / RFU KRT8 (11758188_x_at) / Fold change /veh KRT8 (11758188_x_at) / RFU NKD1 (11759106_at) / Fold change /veh NKD1 (11759106_at) / RFU SRD5A1 (11742802_a_at) / Fold change /veh SRD5A1 (11742802_a_at) / RFU TPSAB1 /// TPSB2 (11721975_s_at) / Fold change /veh TPSAB1 /// TPSB2 (11721975_s_at) / RFU GSTM3 (11746129_a_at) / Fold change /veh GSTM3 (11746129_a_at) / RFU IL23R (11737362_x_at) / Fold change /veh IL23R (11737362_x_at) / RFU TMEM51 (11727254_a_at) / Fold change /veh TMEM51 (11727254_a_at) / RFU PIWIL2 (11732686_x_at) / Fold change /veh PIWIL2 (11732686_x_at) / RFU ORM1 (11744905_x_at) / Fold change /veh ORM1 (11744905_x_at) / RFU CCDC152 (11743942_at) / Fold change /veh CCDC152 (11743942_at) / RFU ECM1 (11717891_a_at) / Fold change /veh ECM1 (11717891_a_at) / RFU IL23R (11748794_a_at) / Fold change /veh IL23R (11748794_a_at) / RFU TNFAIP8L3 (11732012_x_at) / Fold change /veh TNFAIP8L3 (11732012_x_at) / RFU MBOAT4 (11741988_at) / Fold change /veh MBOAT4 (11741988_at) / RFU 11764193_at / Fold change /veh 11764193_at / RFU TMEM53 (11763286_at) / Fold change /veh TMEM53 (11763286_at) / RFU MAGEB2 (11727129_at) / Fold change /veh MAGEB2 (11727129_at) / RFU TMEM200A (11744735_a_at) / Fold change /veh TMEM200A (11744735_a_at) / RFU CCDC152 (11751479_a_at) / Fold change /veh CCDC152 (11751479_a_at) / RFU FAM211A (11726209_a_at) / Fold change /veh FAM211A (11726209_a_at) / RFU RGS16 (11746705_a_at) / Fold change /veh RGS16 (11746705_a_at) / RFU VCAN (11755009_s_at) / Fold change /veh VCAN (11755009_s_at) / RFU RHOB (11743442_s_at) / Fold change /veh RHOB (11743442_s_at) / RFU RGS16 (11720943_a_at) / Fold change /veh RGS16 (11720943_a_at) / RFU RGS16 (11720944_at) / Fold change /veh RGS16 (11720944_at) / RFU, VPS4B / Fold change vs veh, VPS4B / RFU, CREB1 / Fold change vs veh, CREB1 / RFU, DNAJC13 / Fold change vs veh, DNAJC13 / RFU, GNAQ / Fold change vs veh, GNAQ / RFU, CDK5R1 / Fold change vs veh, CDK5R1 / RFU, ZRANB3 / Fold change vs veh, ZRANB3 / RFU, CUL4A / Fold change vs veh, CUL4A / RFU, CCNY / Fold change vs veh, CCNY / RFU, UFL1 / Fold change vs veh, UFL1 / RFU, COG3 / Fold change vs veh, COG3 / RFU, DIAPH2 / Fold change vs veh, DIAPH2 / RFU, SKA2 / Fold change vs veh, SKA2 / RFU, AFF3 / Fold change vs veh, AFF3 / RFU, LMF1 / Fold change vs veh, LMF1 / RFU, IPO11 / Fold change vs veh, IPO11 / RFU, DFFB / Fold change vs veh, DFFB / RFU, FOXP1 / Fold change vs veh, FOXP1 / RFU, CARD8 / Fold change vs veh, CARD8 / RFU, STRN3 / Fold change vs veh, STRN3 / RFU, ADK / Fold change vs veh, ADK / RFU, RASSF2 / Fold change vs veh, RASSF2 / RFU, WIPF1 / Fold change vs veh, WIPF1 / RFU, LARP1B / Fold change vs veh, LARP1B / RFU, RASA1 / Fold change vs veh, RASA1 / RFU, RB1 / Fold change vs veh, RB1 / RFU, PPFIA1 / Fold change vs veh, PPFIA1 / RFU, MAT2A / Fold change vs veh, MAT2A / RFU, CCT5 / Fold change vs veh, CCT5 / RFU, WDR92 / Fold change vs veh, WDR92 / RFU, CUX1 / Fold change vs veh, CUX1 / RFU, TTC7A / Fold change vs veh, TTC7A / RFU, TMEM135 / Fold change vs veh, TMEM135 / RFU, DEPTOR / Fold change vs veh, DEPTOR / RFU, CPM / Fold change vs veh, CPM / RFU, DNAJB6 / Fold change vs veh, DNAJB6 / RFU, CACNA2D3 / Fold change vs veh, CACNA2D3 / RFU, DTX4 / Fold change vs veh, DTX4 / RFU, TFCP2 / Fold change vs veh, TFCP2 / RFU, GMCL1 /// GMCL1P1 / Fold change vs veh, GMCL1 /// GMCL1P1 / RFU, AEBP2 / Fold change vs veh, AEBP2 / RFU, SNHG1 /// SNORD22 /// SNORD25 /// SNORD26 /// SNORD27 /// SNORD28 /// SNORD29 /// SNORD31 / Fold change vs veh, SNHG1 /// SNORD22 /// SNORD25 /// SNORD26 /// SNORD27 /// SNORD28 /// SNORD29 /// SNORD31 / Fold change (Aza/veh), C12orf56 (ProbeSet 11735607_a_at) / Fold change (ACY-1035/veh), C12orf56 (ProbeSet 11735607_a_at) / Fold change (Aza/veh), FGFR1OP (ProbeSet 11751329_s_at) / Fold change (ACY-1035/veh), FGFR1OP (ProbeSet 11751329_s_at) / Fold change (Aza/veh), VPS36 (ProbeSet 11739960_a_at) / Fold change (ACY-1035/veh), VPS36 (ProbeSet 11739960_a_at) / RFU SYPL1 (11715823_x_at) / Fold change /veh SYPL1 (11715823_x_at) / RFU IGFBP7 (11715501_s_at) / Fold change /veh IGFBP7 (11715501_s_at) / RFU REEP3 (11722064_at) / Fold change /veh REEP3 (11722064_at) / RFU IGLL1 (11728026_x_at) / Fold change /veh IGLL1 (11728026_x_at): dose or concentration left out as unconfirmed
Settings: ProbeSet 11749551_a_at; LIST B

## Nc1ccc(-c2cccs2)cc1NC(=O)c1ccc2c(c1)cc(C1CC1)n2CCN1CCOCC1 [ACY-1035]
  Fold change vs veh, RNGTT: 0.96
